Organism: Rattus norvegicus
Experiment: DrugMatrix - Regimen: Daily Repeat
Type: toxicity, organism-based, Sprague-Dawley
Design: regimen Daily Repeat, gender Male, age 6-8 weeks
Details: in vivo, po, route oral GAVAGE, […]; for ABSOLUTE BASOPHIL / ABSOLUTE EOSINOPHIL / ABSOLUTE LYMPHOCYTE / ABSOLUTE MONOCYTE / ABSOLUTE SEGMENTED NEUTROPHIL / BASOPHIL / EOSINOPHIL / ERYTHROCYTE COUNT / HEMATOCRIT / HEMOGLOBIN / LEUKOCYTE COUNT / LYMPHOCYTE / MEAN CORPUSCULAR HEMOGLOBIN / MEAN CORPUSCULAR HEMOGLOBIN CONCENTRATION / MEAN CORPUSCULAR VOLUME / MONOCYTE / NEUTROPHIL / NUCLEATED RED BLOOD CELLS / PLATELET COUNT: tissue Blood; for ALANINE AMINOTRANSFERASE / ALKALINE PHOSPHATASE / ASPARTATE AMINOTRANSFERASE / BLOOD UREA NITROGEN / CARBON DIOXIDE / CHLORIDE / CHOLESTEROL / CREATINE PHOSPHOKINASE / CREATININE / GLUCOSE / LACTATE DEHYDROGENASE / LIPASE / PHOSPHORUS / POTASSIUM / SODIUM / TOTAL BILIRUBIN / TOTAL PROTEIN / URIC ACID: tissue Plasma
[1] = 20.4 mg/kg, 72 h, dose level High, time 3 day
[2] = 20.4 mg/kg, 120 h, dose level High, time 5 day
[3] = 72 h, dose 2.7 mg/Kg, dose level Low, time 3 day
[4] = 120 h, dose 2.7 mg/Kg, dose level Low, time 5 day

CC(C(=O)O)c1cccc(C(=O)c2ccccc2)c1 (stereo not drawn) [KETOPROFEN]
ABSOLUTE BASOPHIL [1]: 0 CELLS/uL
ABSOLUTE EOSINOPHIL [1]: 0 CELLS/uL
ABSOLUTE LYMPHOCYTE [1]: 7267.67 CELLS/uL
ABSOLUTE MONOCYTE [1]: 314.33 CELLS/uL
ABSOLUTE SEGMENTED NEUTROPHIL [1]: 1618 CELLS/uL
BASOPHIL [1]: 0%
EOSINOPHIL [1]: 0%
ERYTHROCYTE COUNT [1]: 4.75 x10E6/uL
HEMATOCRIT [1]: 28.6%
HEMOGLOBIN [1]: 11.67 G/DL
LEUKOCYTE COUNT [1]: 9.2 x10E3/uL
LYMPHOCYTE [1]: 76.67%
MEAN CORPUSCULAR HEMOGLOBIN [1]: 24.67 pg
MEAN CORPUSCULAR HEMOGLOBIN CONCENTRATION [1]: 40.8 G/DL
MEAN CORPUSCULAR VOLUME [1]: 60.43 fL
MONOCYTE [1]: 3.33%
NEUTROPHIL [1]: 20%
NUCLEATED RED BLOOD CELLS [1]: 0.67 /100WBC
PLATELET COUNT [1]: 1067.67 x10E3/uL
ALANINE AMINOTRANSFERASE [1]: 31.67 u/L
ALKALINE PHOSPHATASE [1]: 297.33 u/L
ASPARTATE AMINOTRANSFERASE [1]: 95 u/L
BLOOD UREA NITROGEN [1]: 15.33 mg/dL
CARBON DIOXIDE [1]: 25.67 mmol/L
CHLORIDE [1]: 101.67 MEQ/L
CHOLESTEROL [1]: 70.33 mg/dL
CREATINE PHOSPHOKINASE [1]: 362.33 u/L
CREATININE [1]: 0.15 mg/dL
GLUCOSE [1]: 138.67 mg/dL
LACTATE DEHYDROGENASE [1]: 114 u/L
LIPASE [1]: 9.67 u/L
PHOSPHORUS [1]: 13.07 mg/dL
POTASSIUM [1]: 6.63 MEQ/L
SODIUM [1]: 141.23 MEQ/L
TOTAL BILIRUBIN [1]: 0.1 mg/dL
TOTAL PROTEIN [1]: 4.57 G/DL
URIC ACID [1]: 2.1 mg/dL
ABSOLUTE BASOPHIL [2]: 0 CELLS/uL
ABSOLUTE EOSINOPHIL [2]: 0 CELLS/uL
ABSOLUTE LYMPHOCYTE [2]: 10025.5 CELLS/uL
ABSOLUTE MONOCYTE [2]: 600.5 CELLS/uL
ABSOLUTE SEGMENTED NEUTROPHIL [2]: 1824 CELLS/uL
BASOPHIL [2]: 0%
EOSINOPHIL [2]: 0%
ERYTHROCYTE COUNT [2]: 4.91 x10E6/uL
HEMATOCRIT [2]: 29.7%
HEMOGLOBIN [2]: 12.2 G/DL
LEUKOCYTE COUNT [2]: 12.45 x10E3/uL
LYMPHOCYTE [2]: 76%
MEAN CORPUSCULAR HEMOGLOBIN [2]: 25 pg
MEAN CORPUSCULAR HEMOGLOBIN CONCENTRATION [2]: 41.05 G/DL
MEAN CORPUSCULAR VOLUME [2]: 60.85 fL
MONOCYTE [2]: 4.5%
NEUTROPHIL [2]: 19.5%
NUCLEATED RED BLOOD CELLS [2]: 1 /100WBC
PLATELET COUNT [2]: 1944 x10E3/uL
ALANINE AMINOTRANSFERASE [2]: 58 u/L
ALKALINE PHOSPHATASE [2]: 430 u/L
ASPARTATE AMINOTRANSFERASE [2]: 128 u/L
BLOOD UREA NITROGEN [2]: 17 mg/dL
CARBON DIOXIDE [2]: 21 mmol/L
CHLORIDE [2]: 99.5 MEQ/L
CHOLESTEROL [2]: 61.5 mg/dL
CREATINE PHOSPHOKINASE [2]: 682 u/L
CREATININE [2]: 0.13 mg/dL
GLUCOSE [2]: 127.5 mg/dL
LACTATE DEHYDROGENASE [2]: 391.5 u/L
LIPASE [2]: 20.5 u/L
PHOSPHORUS [2]: 14.15 mg/dL
POTASSIUM [2]: 8.29 MEQ/L
SODIUM [2]: 138.9 MEQ/L
TOTAL BILIRUBIN [2]: 0.15 mg/dL
TOTAL PROTEIN [2]: 5.05 G/DL
URIC ACID [2]: 3.2 mg/dL
ABSOLUTE BASOPHIL [3]: 0 CELLS/uL
ABSOLUTE EOSINOPHIL [3]: 0 CELLS/uL
ABSOLUTE LYMPHOCYTE [3]: 15950 CELLS/uL
ABSOLUTE MONOCYTE [3]: 68.67 CELLS/uL
ABSOLUTE SEGMENTED NEUTROPHIL [3]: 1814.67 CELLS/uL
BASOPHIL [3]: 0%
EOSINOPHIL [3]: 0%
ERYTHROCYTE COUNT [3]: 5.46 x10E6/uL
HEMATOCRIT [3]: 34.7%
HEMOGLOBIN [3]: 13.87 G/DL
LEUKOCYTE COUNT [3]: 17.83 x10E3/uL
LYMPHOCYTE [3]: 89.67%
MEAN CORPUSCULAR HEMOGLOBIN [3]: 25.4 pg
MEAN CORPUSCULAR HEMOGLOBIN CONCENTRATION [3]: 39.97 G/DL
MEAN CORPUSCULAR VOLUME [3]: 63.5 fL
MONOCYTE [3]: 0.33%
NEUTROPHIL [3]: 10%
NUCLEATED RED BLOOD CELLS [3]: 0.67 /100WBC
PLATELET COUNT [3]: 1051 x10E3/uL
ALANINE AMINOTRANSFERASE [3]: 83.33 u/L
ALKALINE PHOSPHATASE [3]: 375.67 u/L
ASPARTATE AMINOTRANSFERASE [3]: 100.33 u/L
BLOOD UREA NITROGEN [3]: 10.33 mg/dL
CARBON DIOXIDE [3]: 28.67 mmol/L
CHLORIDE [3]: 99.67 MEQ/L
CHOLESTEROL [3]: 74 mg/dL
CREATINE PHOSPHOKINASE [3]: 203.67 u/L
CREATININE [3]: 0.12 mg/dL
GLUCOSE [3]: 169 mg/dL
LACTATE DEHYDROGENASE [3]: 131.33 u/L
LIPASE [3]: 12 u/L
PHOSPHORUS [3]: 11.9 mg/dL
POTASSIUM [3]: 6.6 MEQ/L
SODIUM [3]: 141.63 MEQ/L
TOTAL BILIRUBIN [3]: 0.2 mg/dL
TOTAL PROTEIN [3]: 5.5 G/DL
URIC ACID [3]: 1.3 mg/dL
ABSOLUTE BASOPHIL [4]: 0 CELLS/uL
ABSOLUTE EOSINOPHIL [4]: 0 CELLS/uL
ABSOLUTE LYMPHOCYTE [4]: 13468.33 CELLS/uL
ABSOLUTE MONOCYTE [4]: 227.67 CELLS/uL
ABSOLUTE SEGMENTED NEUTROPHIL [4]: 2570.67 CELLS/uL
BASOPHIL [4]: 0%
EOSINOPHIL [4]: 0%
ERYTHROCYTE COUNT [4]: 5.73 x10E6/uL
HEMATOCRIT [4]: 35.13%
HEMOGLOBIN [4]: 14.03 G/DL
LEUKOCYTE COUNT [4]: 16.27 x10E3/uL
LYMPHOCYTE [4]: 83%
MEAN CORPUSCULAR HEMOGLOBIN [4]: 24.5 pg
MEAN CORPUSCULAR HEMOGLOBIN CONCENTRATION [4]: 39.97 G/DL
MEAN CORPUSCULAR VOLUME [4]: 61.33 fL
MONOCYTE [4]: 1.33%
NEUTROPHIL [4]: 15.67%
NUCLEATED RED BLOOD CELLS [4]: 0 /100WBC
PLATELET COUNT [4]: 1235.67 x10E3/uL
ALANINE AMINOTRANSFERASE [4]: 64.67 u/L
ALKALINE PHOSPHATASE [4]: 363.67 u/L
ASPARTATE AMINOTRANSFERASE [4]: 74 u/L
BLOOD UREA NITROGEN [4]: 13.67 mg/dL
CARBON DIOXIDE [4]: 31.67 mmol/L
CHLORIDE [4]: 100.67 MEQ/L
CHOLESTEROL [4]: 64.33 mg/dL
CREATINE PHOSPHOKINASE [4]: 125.67 u/L
CREATININE [4]: 0.17 mg/dL
GLUCOSE [4]: 146.67 mg/dL
LACTATE DEHYDROGENASE [4]: 78 u/L
LIPASE [4]: 11.67 u/L
PHOSPHORUS [4]: 9.8 mg/dL
POTASSIUM [4]: 6.54 MEQ/L
SODIUM [4]: 143.77 MEQ/L
TOTAL BILIRUBIN [4]: 0.13 mg/dL
TOTAL PROTEIN [4]: 5.8 G/DL
URIC ACID [4]: 1.17 mg/dL

Source: ChEMBL document CHEMBL3885881, “DrugMatrix”
